Data published in ChEMBL document CHEMBL1131853 (Bioorg Med Chem Lett, 1999).

What was measured:
[1] = molecular target: Sodium channel alpha subunits; brain (Types I, II, III) (Rattus norvegicus, UniProt P04775+P04774+P08104); assay: Inhibition of veratridine-induced depolarization in rat cerebrocortical synaptosomes using the voltage sensitive fluorescent dye Rhodamine 6G; assay type: functional, subcellular
[2] = Effect on low-threshold (T-type) Calcium current in primary cultured rat cerebrocortical neurons; assay type: functional
[3] = molecular target: D(2) dopamine receptor (Rattus norvegicus, UniProt P61169); assay: Inhibition of [3H]raclopride binding to Dopamine receptor D2 of rat striatum membranes; assay type: cell membranes, Membrane
Sequence of D(2) dopamine receptor (P61169 whole entry): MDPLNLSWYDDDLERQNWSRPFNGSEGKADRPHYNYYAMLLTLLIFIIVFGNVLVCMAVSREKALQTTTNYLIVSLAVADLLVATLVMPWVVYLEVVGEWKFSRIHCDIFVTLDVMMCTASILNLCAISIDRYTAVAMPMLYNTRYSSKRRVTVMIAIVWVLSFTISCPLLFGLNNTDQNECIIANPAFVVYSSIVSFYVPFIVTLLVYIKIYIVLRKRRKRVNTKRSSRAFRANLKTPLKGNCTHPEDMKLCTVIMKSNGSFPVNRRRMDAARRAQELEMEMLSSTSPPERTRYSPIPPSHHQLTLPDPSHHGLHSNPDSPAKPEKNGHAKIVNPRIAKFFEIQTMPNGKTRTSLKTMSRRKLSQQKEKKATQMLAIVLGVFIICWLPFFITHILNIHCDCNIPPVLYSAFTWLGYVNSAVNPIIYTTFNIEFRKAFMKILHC

[4] = system: Mus musculus; assay: Compound was tested in vivo for anticonvulsant activity in DBA/2 mice by i.p. administration; assay type: functional; conditions: ip

IC50 [1]	IC50 [2]	IC50 [3]	Compound	ED50 [4]
130 nM	2000 nM	4340 nM	Cl.O[C@H](COc1ccccc1)CN1CCC(c2ccc(Oc3ccccc3)cc2)CC1	2.5 mg/kg
320 nM	800 nM	–	C(=C\c1ccccc1)/CN1CCC(c2ccc(Oc3ccccc3)cc2)CC1.Cl	4.2 mg/kg
220 nM	3500 nM	4640 nM	Cl.OC(COc1ccccc1)CN1CCC(c2ccc(Oc3ccccc3)cc2)CC1 (centres undefined)	5 mg/kg
120 nM	2700 nM	4080 nM	Cl.O[C@@H](COc1ccccc1)CN1CCC(c2ccc(Oc3ccccc3)cc2)CC1	2.5 mg/kg

Second part, the compound before the results:

Compound	IC50 [1]	IC50 [2]	IC50 [3]	ED50 [4]
Fc1ccc(C(c2ccc(F)cc2)N2CCN(C/C=C/c3ccccc3)CC2)cc1 [FLUNARIZINE]	–	2200 nM	–	6.4 mg/kg
Cl.Fc1ccc(Cc2ccc(C3CCN(C/C=C/c4ccccc4)CC3)cc2)cc1	190 nM	600 nM	–	2.2 mg/kg
Cl.OC(COc1ccccc1)CN1CCC(c2ccc(Cc3ccc(F)cc3)cc2)CC1 (centres undefined)	360 nM	800 nM	> 10000 nM	7.5 mg/kg
